Results as given in patent publication US4960698A, “Process for producing L-654,040, antibacterial agent” (Merck & Co., Inc., priority 1989, dated 1990).
Values after ≈ are worked out from the molar mass of the structure shown. “Also recorded” adds a separate entry of the source.

Tests used:
[1] = test system: Eubcterium limosum 3344; assay: agar dilution MIC, anaerobic, Wilkens-Chalgren agar; assay type: cell-based; conditions: 10^6 cfu/spot, 35° C., 48 hours
Protocol: (a) Wilkens-Chalgren agar was used instead of antagonist-free medium (Roche);
(b) The inoculum/spot was about 10^6 instead of about 10^4 ;
(c) The incubation period was for 48 hours, not 24 hours; and
(d) Incubations were performed under anaerobic conditions.
*Agar dilution assay, multipoint inoculator, WilkensChalgren agar,
inoculum 10^6 cfu/spot, incubation at 35° C. for 48 hours.

[2] = solubility in water; conditions: water solutions for injection
[3] = test system: Pasteurella multocida; assay: combined therapy with erythromycin in infected mice; conditions: intraperitoneal, vs erythromycin alone
[4] = test system: numerous microorganisms; assay: in vitro antibacterial potency (general statement); assay type: cell-based
[5] = test system: Pasteurella multocida (4678); assay: protection and survival of infected mice; conditions: intraperitoneal; for survival time: 160 mg/kg ×2
[6] = test system: Bordetella bronchiseptica (3771); assay: protection and survival of infected mice; conditions: intraperitoneal, 160 mg/kg ×2
[7] = test system: Staph. aureus 2865; assay: agar dilution MIC, antagonist-free medium (Roche); conditions: Table II
[8] = test system: E. coli DC2 4353; assay: agar dilution MIC, antagonist-free medium (Roche); conditions: E. coli permeability mutant, Table II
[9] = mouse, in vivo

Question: What does the source list for C[C@H](CNC(=O)[C@H]1N=C(c2cccc(O)c2O)O[C@@H]1C)C(=O)N[C@@H]1CCCN(O)C1=O [L-654,040]?
Answer: MIC [1]: 128 µg/mL (≈ 295 µM); solubility in water (in words) [2]: limited solubility; efficacy of combined therapy with erythromycin [3]: slightly more effective than erythromycin alone but not to a degree considered to be synergistic; potency in vitro [4]: showing potency in vitro against numerous microorganisms; statistical significance of prolonged survival (in words) [5]: statistically significant at one level in two Pasteurella tests; survival time ([5]; 160 mg/kg): prolongation of survival time was observed; also recorded: increases survival time; survival time ([5]; listed as L-654.040, 160 mg/kg): did prolong the survival time; survival time ([6]; 160 mg/kg): prolongation of survival time was observed; survival time ([6]; listed as L-654.040, 160 mg/kg): did prolong the survival time; sensitivity of strain [7]: sensitive; sensitivity of strain [8]: sensitive; tolerability in uninfected mice [9]: tolerated by uninfected mice

Question: For CO[C@@]1(NC(=O)Cc2cccs2)C(=O)N2C(C(=O)O)=C(COC(N)=O)CS[C@@H]21 [CEFOXITIN, Cefoxitin, reference compound], which MIC [1] is on record?
Answer: Its MIC is 1 µg/mL (≈ 2.34 µM).
